Results as given in ChEMBL document CHEMBL2331210, “New 2-benzylsulfanyl-nicotinic acid based 1,3,4-oxadiazoles: their synthesis and biological evaluation” (2013).
Values after ≈ are worked out from the molar mass of the structure shown.

Tests used:
HCT-15 = experiment: Antitumor activity against human HCT15 cells assessed as cell growth at 0.1 uM; type: functional; settings: read-out: Activity
SK-MEL-2 = experiment: cells; settings: Homo sapiens, SK-MEL-2, read-out: Activity
Description: Antitumor activity against human SK-MEL-2 cells assessed as cell growth at 0.1 uM

BT-549 = experiment: Antitumor activity against human BT549 cells assessed as cell growth at 0.1 uM; type: functional; settings: read-out: Activity
OVCAR-3 = experiment: Antitumor activity against human OVCAR3 cells assessed as cell growth at 0.1 uM; type: functional; settings: read-out: Activity
SF-539 = experiment: Antitumor activity against human SF539 cells assessed as cell growth at 0.1 uM; type: functional; settings: read-out: Activity
HT-29 = experiment: Antitumor activity against human HT-29 cells assessed as cell growth at 0.1 uM; type: functional; settings: read-out: Activity
Aspergillus niger = experiment: Antimicrobial activity against Aspergillus niger MTCC 282 assessed as growth inhibition measured after overnight incubation by broth dilution method; type: functional
Malme-3M = experiment: Antitumor activity against human MALME-3M cells assessed as cell growth at 0.1 uM; type: functional; settings: read-out: Activity
RPMI-8226 = experiment: Antitumor activity against human RPMI8226 cells assessed as cell growth at 0.1 uM; type: functional; settings: read-out: Activity
SN12C = experiment: Antitumor activity against human SN12C cells assessed as cell growth at 0.1 uM; type: functional; settings: read-out: Activity
MDA-MB-435 = experiment: Antitumor activity against human MDA-MB-435 cells assessed as cell growth at 0.1 uM; type: functional; settings: read-out: Activity
TK-10 = experiment: Antitumor activity against human TK10 cells assessed as cell growth at 0.1 uM; type: functional; settings: read-out: Activity
[1] = Antitumor activity against human EKVX cells assessed as cell growth at 0.1 uM; type: functional; settings: read-out: Activity
A549 = experiment: Antitumor activity against human A549/ATCC cells assessed as cell growth at 0.1 uM; type: functional; settings: read-out: Activity
ACHN = experiment: Antitumor activity against human ACHN cells assessed as cell growth at 0.1 uM; type: functional; settings: read-out: Activity
UO-31 = experiment: Antitumor activity against human UO31 cells assessed as cell growth at 0.1 uM; type: functional; settings: read-out: Activity
Candida albicans = experiment: Antimicrobial activity against Candida albicans MTCC 227 assessed as growth inhibition measured after overnight incubation by broth dilution method; type: functional
NCI-H23 = experiment: Antitumor activity against human NCI-H23 cells assessed as cell growth at 0.1 uM; type: functional; settings: read-out: Activity
SW-620 = experiment: Antitumor activity against human SW620 cells assessed as cell growth at 0.1 uM; type: functional; settings: read-out: Activity
NCI-H226 = experiment: Antitumor activity against human NCI-H226 cells assessed as cell growth at 0.1 uM; type: functional; settings: read-out: Activity
IGROV-1 = experiment: Antitumor activity against human IGROV1 cells assessed as cell growth at 0.1 uM; type: functional; settings: read-out: Activity
SK-OV-3 = experiment: Antitumor activity against human SKOV3 cells assessed as cell growth at 0.1 uM; type: functional; settings: read-out: Activity
SK-MEL-28 = experiment: Antitumor activity against human SK-MEL-28 cells assessed as cell growth at 0.1 uM; type: functional; settings: read-out: Activity
Aspergillus clavatus = experiment: Antimicrobial activity against Aspergillus clavatus MTCC 1323 assessed as growth inhibition measured after overnight incubation by broth dilution method; type: functional
U-251 = experiment: Antitumor activity against human U251 cells assessed as cell growth at 0.1 uM; type: functional; settings: read-out: Activity
NCI/ADR-RES = experiment: Antitumor activity against human NCI/ADR-RES cells assessed as cell growth at 0.1 uM; type: functional; settings: read-out: Activity
SR = experiment: Antitumor activity against human SR cells assessed as cell growth at 0.1 uM; type: functional; settings: read-out: Activity
LOX IMVI = experiment: Antitumor activity against human LOXIMVI cells assessed as cell growth at 0.1 uM; type: functional; settings: read-out: Activity
UACC-62 = experiment: Antitumor activity against human UACC62 cells assessed as cell growth at 0.1 uM; type: functional; settings: read-out: Activity
RXF 393 = experiment: Antitumor activity against human RXF393 cells assessed as cell growth at 0.1 uM; type: functional; settings: read-out: Activity
DU-145 = experiment: Antitumor activity against human DU145 cells assessed as cell growth at 0.1 uM; type: functional; settings: read-out: Activity
MOLT-4 = experiment: Antitumor activity against human MOLT4 cells assessed as cell growth at 0.1 uM; type: functional; settings: read-out: Activity
A498 = experiment: Antitumor activity against human A498 cells assessed as cell growth at 0.1 uM; type: functional; settings: read-out: Activity
PC-3 = experiment: Antitumor activity against human PC3 cells assessed as cell growth at 0.1 uM; type: functional; settings: read-out: Activity
[2] = Antitumor activity against human Hs 578T cells assessed as cell growth at 0.1 uM; type: functional; settings: read-out: Activity
Escherichia coli = experiment: Antimicrobial activity against Escherichia coli MTCC 443 assessed as growth inhibition measured after overnight incubation by broth dilution method; type: functional
[3] = Antitumor activity against human HCC2998 cells assessed as cell growth at 0.1 uM; type: functional; settings: HCC 2998, read-out: Activity
CCRF-CEM = experiment: Antitumor activity against human CCRF-CEM cells assessed as cell growth at 0.1 uM; type: functional; settings: read-out: Activity
SNB-19 = experiment: Antitumor activity against human SNB19 cells assessed as cell growth at 0.1 uM; type: functional; settings: read-out: Activity
OVCAR-5 = experiment: Antitumor activity against human OVCAR5 cells assessed as cell growth at 0.1 uM; type: functional; settings: read-out: Activity
Streptococcus pyogenes = experiment: Antimicrobial activity against Streptococcus pyogenes MTCC 442 assessed as growth inhibition measured after overnight incubation by broth dilution method; type: functional
NCI-H460 = experiment: Antitumor activity against human NCI-H460 cells assessed as cell growth at 0.1 uM; type: functional; settings: read-out: Activity
Pseudomonas aeruginosa = experiment: Antimicrobial activity against Pseudomonas aeruginosa MTCC 2488 assessed as growth inhibition measured after overnight incubation by broth dilution method; type: functional
OVCAR-8 = experiment: Antitumor activity against human OVCAR8 cells assessed as cell growth at 0.1 uM; type: functional; settings: read-out: Activity
SNB-75 = experiment: Antitumor activity against human SNB75 cells assessed as cell growth at 0.1 uM; type: functional; settings: read-out: Activity
MCF7 = experiment: Antitumor activity against human MCF7 cells assessed as cell growth at 0.1 uM; type: functional; settings: read-out: Activity
M14 = experiment: Antitumor activity against human M14 cells assessed as cell growth at 0.1 uM; type: functional; settings: read-out: Activity
MDA-MB-231 = experiment: Antitumor activity against human MDA-MB-231/ATCC cells assessed as cell growth at 0.1 uM; type: functional; settings: read-out: Activity
K562 = experiment: Antitumor activity against human K562 cells assessed as cell growth at 0.1 uM; type: functional; settings: read-out: Activity
SF-268 = experiment: Antitumor activity against human SF268 cells assessed as cell growth at 0.1 uM; type: functional; settings: read-out: Activity
Staphylococcus aureus = experiment: Antimicrobial activity against Staphylococcus aureus MTCC 96 assessed as growth inhibition measured after overnight incubation by broth dilution method; type: functional
[4] = system: Mycobacterium tuberculosis; experiment: Antitubercular activity against Mycobacterium tuberculosis H37Rv assessed as growth inhibition after 12 to 28 days by L.J. agar MIC method; type: functional
MDA-MB-468 = experiment: Antitumor activity against human MDA-MB-468 cells assessed as cell growth at 0.1 uM; type: functional; settings: read-out: Activity
CAKI-1 = experiment: Antitumor activity against human CAKI-1 cells assessed as cell growth at 0.1 uM; type: functional; settings: read-out: Activity
NCI-H522 = experiment: Antitumor activity against human NCI-H522 cells assessed as cell growth at 0.1 uM; type: functional; settings: read-out: Activity
HL-60 = experiment: Antitumor activity against human HL60(TB) cells assessed as cell growth at 0.1 uM; type: functional; settings: read-out: Activity
SF-295 = experiment: Antitumor activity against human SF295 cells assessed as cell growth at 0.1 uM; type: functional; settings: read-out: Activity
T47D = experiment: Antitumor activity against human T47D cells assessed as cell growth at 0.1 uM; type: functional; settings: read-out: Activity
KM12 = experiment: Antitumor activity against human KM12 cells assessed as cell growth at 0.1 uM; type: functional; settings: read-out: Activity
HCT-116 = experiment: Antitumor activity against human HCT116 cells assessed as cell growth at 0.1 uM; type: functional; settings: read-out: Activity
UACC-257 = experiment: Antitumor activity against human UACC257 cells assessed as cell growth at 0.1 uM; type: functional; settings: read-out: Activity
HOP-62 = experiment: Antitumor activity against human HOP62 cells assessed as cell growth at 0.1 uM; type: functional; settings: read-out: Activity
OVCAR-4 = experiment: Antitumor activity against human OVCAR4 cells assessed as cell growth at 0.1 uM; type: functional; settings: read-out: Activity
SK-MEL-5 = experiment: Antitumor activity against human SK-MEL-5 cells assessed as cell growth at 0.1 uM; type: functional; settings: read-out: Activity

Cc1cnc(NC(=O)CSc2nnc(-c3cccnc3SCc3ccccc3)o2)s1
growth at 0.1 µM (HCT-15): 77.3%
growth at 0.1 µM (SK-MEL-2): 94%
growth at 0.1 µM (BT-549): 75.7%
growth at 0.1 µM (OVCAR-3): 82.2%
growth at 0.1 µM (SF-539): 85.5%
growth at 0.1 µM (HT-29): 81.6%
MIC (Aspergillus niger): 1000 µg/mL (≈ 2190 µM)
growth at 0.1 µM (Malme-3M): 100%
growth at 0.1 µM (RPMI-8226): 63.9%
growth at 0.1 µM (SN12C): 46.3%
growth at 0.1 µM (MDA-MB-435): 96.5%
growth at 0.1 µM (TK-10): 82.3%
growth at 0.1 µM [1]: 72.1%
growth at 0.1 µM (A549): 51%
growth at 0.1 µM (ACHN): 66.5%
growth at 0.1 µM (UO-31): 22.2%
MIC (Candida albicans): 250 µg/mL (≈ 549 µM)
growth at 0.1 µM (NCI-H23): 80.6%
growth at 0.1 µM (SW-620): 90%
growth at 0.1 µM (NCI-H226): 70.2%
growth at 0.1 µM (IGROV-1): 58.5%
growth at 0.1 µM (SK-OV-3): 96.2%
growth at 0.1 µM (SK-MEL-28): 106%
MIC (Aspergillus clavatus): 1000 µg/mL (≈ 2190 µM)
growth at 0.1 µM (U-251): 72.8%
growth at 0.1 µM (NCI/ADR-RES): 74%
growth at 0.1 µM (SR): 67.9%
growth at 0.1 µM (LOX IMVI): 73.1%
growth at 0.1 µM (UACC-62): 71.7%
growth at 0.1 µM (RXF 393): 73%
growth at 0.1 µM (DU-145): 58%
growth at 0.1 µM (MOLT-4): 41.8%
growth at 0.1 µM (A498): 73.7%
growth at 0.1 µM (PC-3): 46.4%
growth at 0.1 µM [2]: 86.2%
MIC (Escherichia coli): 200 µg/mL (≈ 439 µM)
growth at 0.1 µM [3]: 89.5%
growth at 0.1 µM (CCRF-CEM): 37.8%
growth at 0.1 µM (SNB-19): 65.3%
growth at 0.1 µM (OVCAR-5): 87.5%
MIC (Streptococcus pyogenes): 62.5 µg/mL (≈ 137 µM)
growth at 0.1 µM (NCI-H460): 81.1%
MIC (Pseudomonas aeruginosa): 62.5 µg/mL (≈ 137 µM)
growth at 0.1 µM (OVCAR-8): 70.3%
growth at 0.1 µM (SNB-75): 70.6%
growth at 0.1 µM (MCF7): 62.8%
growth at 0.1 µM (M14): 84.1%
growth at 0.1 µM (MDA-MB-231): 11%
growth at 0.1 µM (K562): 77.2%
growth at 0.1 µM (SF-268): 59.1%
MIC (Staphylococcus aureus): 125 µg/mL (≈ 274 µM)
growth inhibition (GI) [4]: 99%
MIC ([4]; Mycobacterium tuberculosis, H37Rv): 50 µg/mL (≈ 110 µM)
growth at 0.1 µM (MDA-MB-468): 57.5%
growth at 0.1 µM (CAKI-1): 75.3%
growth at 0.1 µM (NCI-H522): 18.5%
growth at 0.1 µM (HL-60): 49.8%
growth at 0.1 µM (SF-295): 90.1%
growth at 0.1 µM (T47D): 37.5%
growth at 0.1 µM (KM12): 44.9%
growth at 0.1 µM (HCT-116): 82.4%
growth at 0.1 µM (UACC-257): 94.9%
growth at 0.1 µM (HOP-62): 81.1%
growth at 0.1 µM (OVCAR-4): 67%
growth at 0.1 µM (SK-MEL-5): 78%
